Experiments:
[1] = test system: BT474 cells; test: Inhibition of cell proliferation, BT474 (CCK-8, 72 h); format: cell-based; conditions: Homo sapiens, BT-474, 72 h incubation
Experimental: The assay for the inhibition of cell proliferation by small molecular compounds was carried out using the method as follows:
1. 600 μL pancreatin was added to a T75 cell culture flask, which was digested in a 37° C. incubator for about 1 min before 5 mL of DMEM complete culture solution was added, blew evenly, transferred to a 15 mL centrifuge tube, and centrifuged at 1000 rpm for 4 min;
2. The supernatant was removed and 5 mL DMEM complete culture solution was added, blew evenly, and 10 μL cell suspension was taken and mixed with 10 μL 0.4% Trypan Blue, and counted using a cell counter;
3. BT474 and HCC827 cell lines were seeded in 96-well plates at a cell density of 10,000 and 3000 cells/well/80 μL, respectively, and cultured overnight. Only sterile water was added to the 36 wells on the periphery of the 96-well plate without adding cells, and only the 60 wells in the center of the 96-well plate were used for cell assays and controls;
4. Dilution of compounds: the compounds were diluted with a 3-fold dilution to make 10 concentrations in total with an initial concentration of 10 mM;
5. 20 μL of different compounds with different concentrations were added to each well, and 20 μL of complete culture solution was added to the remaining wells. The final concentration of DMSO in each well is 0.25%;
6. After 72 h of incubation, 10 μL CCK-8 reagent was added to each well, and incubated at 37° C. for 1-2 h; and the OD value was read at 450 nm;
7. Cell survival rate (%)=[(As−Ab)/(Ac−Ab)]*100%
As: Assay well (medium containing cell, CCK-8, compound)
Ac: Control well (medium containing cell, CCK-8)
Ab: Blank well (CCK-8, medium without cell and compound)
8. The value was imported into Graphpad Prism5 software for the calculation of IC50s (compound concentration at which 50% maximum survival rate is observed).

[2] = target: HER2 kinase (Homo sapiens (Human), UniProt P04626); test: Inhibition of HER2 kinase activity (ULight-labeled PolyGT substrate); format: biochemical; conditions: HER2 kinase 10 nM, ATP 10 μM, 2 hours
Experimental: (§1) The assay for the inhibition of EGFR and HER2 kinase activity by small molecular compounds was carried out using the method as follows:
(§2) 1) Dilution of the compounds
(§3) In a 96-well plate a, the compounds were diluted with DMSO using a 3-fold gradient dilution to form 11 concentrations, the 12th concentration is pure DMSO (as a positive control); and in a new 96-well plate b the above solutions were diluted 25 times with ultrapure water (DMSO concentration is 4%).
(§4) 2) Transferring the compounds to 384-well plate
(§5) The compound solutions diluted with ultrapure water in the 96-well plate b above was transferred to the corresponding wells of a 384-well plate in duplicate.
(§6) 3) Addition of 4×kinase solution: 2.5 μl of the above 4× kinase solution was taken using multichannel pipette and added to the corresponding reaction wells of the 384-well plate, mixed well and pre-reacted at room temperature for 5 minutes.
(§7) 4) Addition of 2×substrate/ATP mixed solution: 5 μl of the above 2×substrate/ATP mixed solution was taken using multichannel pipette and added to the corresponding reaction wells of the 384-well plate.
(§8) 5) Negative control: negative control wells were set in the 384-well plate, and 2.5 μl 4×substrate, 2.5 μl 4×enzyme solution, 2.5 μl 1×Kinase Assay Buffer and 2.5 μl ultrapure water containing 4% DMSO were added to each well.
(§9) 6) Mixed by centrifugation and kept at room temperature for 2 hours in the dark.
(§10) 7) Termination of the enzymatic reaction:
(§11) 5 μl of the above 4× stop solution was pipetted to the corresponding wells of the 384-well plate, centrifuged and mixed, and reacted at room temperature for 5 minutes.
(§12) 5 μl of the above 4× detection solution was pipetted into the corresponding wells of the 384-well plate, centrifuged and mixed, and reacted at room temperature for 1 hour.
(§13) 9) The 384-well plate was placed into a microplate reader and the signal was detected using the corresponding program.
(§14) 10) IC50 analysis: Well reading value=10000*EU665 value/EU615 value Inhibition rate=(reading value of positive control well−reading value of experimental well)/(reading value of positive control well−reading value of negative control well)*100% Corresponding IC50s can be calculated by entering the drug concentrations and the corresponding inhibition rates into GraphPad Prism 5.
Conditions of experiment for screening HER2 kinase inhibitory molecules:
The final concentration of HER2 kinase in the reaction system is 10 nM, the final concentration of ATP is 10 μM, the final concentration of substrate ULight™-labeled PolyGT is 100 nM, and the enzymatic reaction time is 2 hours.
(§15) The maximum final concentration of the compound in the reaction system is 2.5 μM, 11 concentrations were made with a 3-fold gradient dilution, and the minimal final concentration is 0.042 nM. The final concentration of DMSO is 1%.

[3] = target: EGFR kinase (Homo sapiens (Human), UniProt P00533); test: Inhibition of EGFR kinase activity (ULight-labeled JAK-1 (Tyr1023) peptide substrate); format: biochemical; conditions: EGFR kinase 0.35 nM, ATP 150 μM, 2 hours
Experimental: as §1, §2, §3, §4, §5, §6, §7, §8, §9, §10, §11, §12, §13, §14
Conditions of experiment for screening EGFR kinase inhibitory molecules:
The final concentration of EGFR kinase in the reaction system is 0.35 nM, and the final concentration of ATP is 150 μM, the final concentration of substrate ULight™-labeled JAK-1 (Tyr1023) Peptide is 100 nM, and the enzymatic reaction time is 2 hours.
as §15

HER2 kinase, sequence (P04626 23-1255): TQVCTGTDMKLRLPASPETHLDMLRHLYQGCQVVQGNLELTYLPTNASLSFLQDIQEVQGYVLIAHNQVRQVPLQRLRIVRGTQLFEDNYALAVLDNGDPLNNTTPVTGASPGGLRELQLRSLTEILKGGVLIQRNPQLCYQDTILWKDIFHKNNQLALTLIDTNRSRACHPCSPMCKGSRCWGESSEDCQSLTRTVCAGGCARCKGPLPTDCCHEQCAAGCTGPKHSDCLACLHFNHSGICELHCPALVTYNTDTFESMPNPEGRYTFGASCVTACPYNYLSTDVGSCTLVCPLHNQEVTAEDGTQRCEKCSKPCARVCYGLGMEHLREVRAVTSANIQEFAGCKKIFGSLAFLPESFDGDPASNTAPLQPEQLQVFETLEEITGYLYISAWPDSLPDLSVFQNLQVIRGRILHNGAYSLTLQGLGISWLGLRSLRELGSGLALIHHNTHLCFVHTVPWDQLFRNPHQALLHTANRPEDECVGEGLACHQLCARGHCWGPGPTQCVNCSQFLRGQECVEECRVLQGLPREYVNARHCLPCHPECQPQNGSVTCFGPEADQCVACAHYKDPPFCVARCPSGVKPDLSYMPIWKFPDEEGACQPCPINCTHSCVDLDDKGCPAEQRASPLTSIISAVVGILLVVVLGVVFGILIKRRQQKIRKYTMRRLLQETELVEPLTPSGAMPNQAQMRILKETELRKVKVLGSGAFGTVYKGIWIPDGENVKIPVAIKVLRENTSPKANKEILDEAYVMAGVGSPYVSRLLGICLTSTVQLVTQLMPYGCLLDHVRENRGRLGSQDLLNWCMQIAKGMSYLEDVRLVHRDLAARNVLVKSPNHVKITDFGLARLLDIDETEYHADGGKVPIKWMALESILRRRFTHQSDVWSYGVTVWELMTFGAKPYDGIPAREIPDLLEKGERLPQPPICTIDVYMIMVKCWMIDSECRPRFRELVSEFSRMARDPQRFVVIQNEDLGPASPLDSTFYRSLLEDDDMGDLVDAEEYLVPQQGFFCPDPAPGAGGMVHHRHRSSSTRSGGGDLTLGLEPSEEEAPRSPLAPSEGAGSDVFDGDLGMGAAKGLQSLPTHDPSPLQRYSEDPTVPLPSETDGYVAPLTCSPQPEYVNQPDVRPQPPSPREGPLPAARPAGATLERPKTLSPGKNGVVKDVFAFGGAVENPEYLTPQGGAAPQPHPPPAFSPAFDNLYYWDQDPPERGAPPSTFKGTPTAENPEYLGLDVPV
EGFR kinase, sequence (P00533 25-1210): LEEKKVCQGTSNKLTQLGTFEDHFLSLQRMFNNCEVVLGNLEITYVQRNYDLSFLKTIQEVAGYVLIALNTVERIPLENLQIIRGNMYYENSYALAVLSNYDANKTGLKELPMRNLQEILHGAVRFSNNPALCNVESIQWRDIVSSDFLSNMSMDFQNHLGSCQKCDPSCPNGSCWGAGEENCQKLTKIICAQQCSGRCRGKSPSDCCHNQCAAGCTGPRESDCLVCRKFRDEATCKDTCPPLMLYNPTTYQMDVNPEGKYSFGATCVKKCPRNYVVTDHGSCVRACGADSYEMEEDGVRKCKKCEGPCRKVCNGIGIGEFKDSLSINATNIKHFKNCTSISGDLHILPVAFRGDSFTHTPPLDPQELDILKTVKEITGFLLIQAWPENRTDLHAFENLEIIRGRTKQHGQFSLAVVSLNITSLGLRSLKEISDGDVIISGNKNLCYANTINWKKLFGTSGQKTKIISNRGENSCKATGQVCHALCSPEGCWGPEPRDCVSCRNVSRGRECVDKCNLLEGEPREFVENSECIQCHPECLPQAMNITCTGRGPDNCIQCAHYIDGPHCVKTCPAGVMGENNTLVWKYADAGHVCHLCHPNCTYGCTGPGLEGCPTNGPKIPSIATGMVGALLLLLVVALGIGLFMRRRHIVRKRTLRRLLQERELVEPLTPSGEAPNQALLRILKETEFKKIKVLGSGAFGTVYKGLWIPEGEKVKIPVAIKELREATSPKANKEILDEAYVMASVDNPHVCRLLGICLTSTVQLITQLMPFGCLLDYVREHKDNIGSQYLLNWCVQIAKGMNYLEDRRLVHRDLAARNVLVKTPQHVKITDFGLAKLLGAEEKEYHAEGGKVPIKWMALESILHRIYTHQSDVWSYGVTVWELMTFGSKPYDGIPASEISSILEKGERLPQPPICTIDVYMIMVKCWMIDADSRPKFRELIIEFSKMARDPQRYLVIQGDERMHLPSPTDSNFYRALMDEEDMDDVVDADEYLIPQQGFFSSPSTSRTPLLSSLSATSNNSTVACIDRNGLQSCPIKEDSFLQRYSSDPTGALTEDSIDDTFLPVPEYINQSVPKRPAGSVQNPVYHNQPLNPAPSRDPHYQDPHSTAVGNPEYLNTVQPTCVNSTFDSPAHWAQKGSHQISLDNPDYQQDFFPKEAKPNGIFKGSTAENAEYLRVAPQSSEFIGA

For `CN(C)C/C=C/C(=O)N1CCOc2c1ccc1ncnc(Nc3ccc(Oc4ccn5ncnc5c4)c(Cl)c3)c21` [Example 125, (E)-1-(10-((4-([1,2,4]triazolo[1,5-a]pyridin-7-yloxy)-3-chlorophenyl)amino)-2,3-dihydro-4H-[1,4]oxazino[2,3-f]quinazolin-4-yl)-4-(dimethylamino)but-2-en-1-one], the IC50 [1] was at most 50 nM, the IC50 [2] was at most 50 nM and the IC50 [3] was 50 to 500 nM.

For `CCN(CC)C/C=C/C(=O)N1CCOc2c1ccc1ncnc(Nc3ccc(Oc4ccn5ncnc5c4)c(C)c3)c21` [Example 137, (E)-1-(10-((4-([1,2,4]triazolo[1,5-a]pyridin-7-yloxy)-3-methylphenyl)amino)-2,3-dihydro-4H-[1,4]oxazino[2,3-f]quinazolin-4-yl)-4-(diethylamino)but-2-en-1-one], the IC50 [1] was at most 50 nM, the IC50 [2] was at most 50 nM and the IC50 [3] was 500 to 5000 nM.

Work on `CCN(CC)C/C=C/C(=O)N1CCOc2c1ccc1ncnc(Nc3ccc(Oc4ccn5ncnc5c4)c(Cl)c3)c21` [Example 131, (E)-1-(10-((4-([1,2,4]triazolo[1,5-a]pyridin-7-yloxy)-3-chlorophenyl)amino)-2,3-dihydro-4H-[1,4]oxazino[2,3-f]quinazolin-4-yl)-4-(diethylamino)but-2-en-1-one] yielded an IC50 [1] of at most 50 nM, an IC50 [2] of at most 50 nM and an IC50 [3] of 50 to 500 nM.

Work on `Cc1cc(Nc2ncnc3ccc4c(c23)OCCN4C(=O)/C=C/CN(C)C)ccc1Oc1ccn2ncnc2c1` [Example 124, (E)-1-(10-((4-([1,2,4]triazolo[1,5-a]pyridin-7-yloxy)-3-methylphenyl)amino)-2,3-dihydro-4H-[1,4]oxazino[2,3-f]quinazolin-4-yl)-4-(dimethylamino)but-2-en-1-one] yielded an IC50 [1] of at most 50 nM, an IC50 [2] of at most 50 nM and an IC50 [3] of 50 to 500 nM.

Work on `C=CC(=O)N1CCOc2c1ccc1ncnc(Oc3ccc(OCc4cccc(F)c4)cc3)c21` [Example 41, 1-(10-(4-((3-fluorobenzyl)oxy)phenoxy)-2,3-dihydro-4H-[1,4]oxazino[2,3-f]quinazolin-4-yl)prop-2-en-1-one] yielded an IC50 [2] of at most 50 nM and an IC50 [3] of at most 50 nM.

For `Cc1cc(Nc2ncnc3ccc4c(c23)OCCN4C(=O)/C=C/CN2CCN(C)CC2)ccc1Oc1ccn2ncnc2c1` [Example 132, (E)-1-(10-((4-([1,2,4]triazolo[1,5-a]pyridin-7-yloxy)-3-methylphenyl)amino)-2,3-dihydro-4H-[1,4]oxazino[2,3-f]quinazolin-4-yl)-4-(4-methylpiperazin-1-yl)but-2-en-1-one], the IC50 [1] was at most 50 nM, the IC50 [2] was at most 50 nM and the IC50 [3] was 50 to 500 nM.

In the case of `C=CC(=O)N1CCOc2c1ccc1ncnc(Oc3ccc(Oc4ccccc4)cc3)c21` [Example 33, 1-(10-(4-phenoxyphenoxy)-2,3-dihydro-4H-[1,4]oxazino[2,3-f]quinazolin-4-yl)prop-2-en-1-one], the IC50 [2] is reported as at most 50 nM and the IC50 [3] is reported as at most 50 nM.

With `CN(C)C/C=C/C(=O)N1CCOc2c1ccc1ncnc(Nc3ccc(Oc4cccc(C(F)(F)F)c4)cc3)c21` [Example 43, (E)-4-(dimethylamino)-1-(10-((4-(3-(trifluoromethyl)phenoxy)phenyl)amino)-2,3-dihydro-4H-[1,4]oxazino[2,3-f]quinazolin-4-yl)but-2-en-1-one] the IC50 [2] was at most 50 nM and the IC50 [3] was at most 50 nM.

`Cc1cc(Nc2ncnc3ccc4c(c23)OCCN4C(=O)/C=C/CN(C)C(C)C)ccc1Oc1ccn2ncnc2c1` [Example 133, (E)-1-(10-((4-([1,2,4]triazolo[1,5-a]pyridin-7-yloxy)-3-methylphenyl)amino)-2,3-dihydro-4H-[1,4]oxazino[2,3-f]quinazolin-4-yl)-4-(isopropyl(methyl)amino)but-2-en-1-one] gave an IC50 [1] of at most 50 nM, an IC50 [2] of at most 50 nM and an IC50 [3] of 500 to 5000 nM.

`COCCN(C)C/C=C/C(=O)N1CCOc2c1ccc1ncnc(Nc3ccc(Oc4ccn5ncnc5c4)c(Cl)c3)c21` [Example 130, (E)-1-(10-((4-([1,2,4]triazolo[1,5-a]pyridin-7-yloxy)-3-chlorophenyl)amino)-2,3-dihydro-4H-[1,4]oxazino[2,3-f]quinazolin-4-yl)-4-((2-methoxyethyl)(methyl)amino)but-2-en-1-one] showed an IC50 [1] of at most 50 nM, an IC50 [2] of at most 50 nM and an IC50 [3] of 50 to 500 nM.

`C=CC(=O)N1CCOc2c1ccc1ncnc(Oc3ccc(OCc4ccccn4)cc3)c21` [Example 39, 1-(10-(4-(pyridin-2-ylmethoxy)phenoxy)-2,3-dihydro-4H-[1,4]oxazino[2,3-f]quinazolin-4-yl)prop-2-en-1-one] was tested, and the IC50 [2] was at most 50 nM and the IC50 [3] was at most 50 nM.

With `C=CC(=O)N1CCOc2c1ccc1ncnc(Nc3ccc(OCc4ccccn4)c(Cl)c3)c21` [Example 4, 1-(10-((3-chloro-4-(pyridin-2-ylmethoxy)phenyl)amino)-2,3-dihydro-4H-[1,4]oxazino[2,3-f]quinazolin-4-yl)prop-2-en-1-one] the IC50 [2] was at most 50 nM and the IC50 [3] was at most 50 nM.

For `CN(C)C/C=C/C(=O)N1CCOc2c1ccc1ncnc(Nc3ccc(Sc4ccc(F)cc4)cc3)c21` [Example 70, (E)-4-(dimethylamino)-1-(10-((4-((4-fluorophenyl)thio)phenyl)amino)-2,3-dihydro-4H-[1,4]oxazino[2,3-f]quinazolin-4-yl)but-2-en-1-one], the IC50 [1] was at most 50 nM, the IC50 [2] was at most 50 nM and the IC50 [3] was at most 50 nM.

`CN(C)C/C=C/C(=O)N1CCOc2c1ccc1ncnc(Nc3ccc(Oc4ccc(Cl)cc4)cc3)c21` [Example 52, (E)-4-(dimethylamino)-1-(10-((4-(4-chlorophenoxy)phenyl)amino)-2,3-dihydro-4H-[1,4]oxazino[2,3-f]quinazolin-4-yl)but-2-en-1-one] was tested, and the IC50 [2] was at most 50 nM and the IC50 [3] was at most 50 nM.

`CC(Oc1ccc(Nc2ncnc3ccc4c(c23)OCCN4C(=O)/C=C/CN(C)C)cc1)c1ccccn1` (centres unmarked) [Example 75, (E)-4-(dimethylamino)-1-(10-((4-(1-(pyridin-2-yl)ethoxy)phenyl)amino)-2,3-dihydro-4H-[1,4]oxazino[2,3-f]quinazolin-4-yl)but-2-en-1-one] gave an IC50 [2] of at most 50 nM and an IC50 [3] of 50 to 500 nM.

`C=CC(=O)N1CCOc2c1ccc1ncnc(Oc3ccc(OCc4cccc(F)c4)c(Cl)c3)c21` [Example 35, 1-(10-(3-chloro-4-((3-fluorobenzyl)oxy)phenoxy)-2,3-dihydro-4H-[1,4]oxazino[2,3-f]quinazolin-4-yl)prop-2-en-1-one] showed an IC50 [2] of at most 50 nM and an IC50 [3] of at most 50 nM.

For `C=CC(=O)N1CCOc2c1ccc1ncnc(Oc3ccc(OCc4ccccc4F)cc3)c21` [Example 40, 1-(10-(4-((2-fluorobenzyl)oxy)phenoxy)-2,3-dihydro-4H-[1,4]oxazino[2,3-f]quinazolin-4-yl)prop-2-en-1-one], the IC50 [2] was at most 50 nM and the IC50 [3] was at most 50 nM.

Molecule `C=CC(=O)N1CCOc2c1ccc1ncnc(Oc3ccc(Oc4ccc(F)cc4)cc3)c21` [Example 37, 1-(10-(4-(4-fluorophenoxy)phenoxy)-2,3-dihydro-4H-[1,4]oxazino[2,3-f]quinazolin-4-yl)prop-2-en-1-one] has an IC50 [2] of at most 50 nM and an IC50 [3] of at most 50 nM.
